Source: patent publication US20250179024A1, “AMYLOID AND ASSOCIATED PATHOLOGY MODULATORS AND METHODS THEREOF” (Jawaharlal Nehru Centre for Advanced Scientific Research, priority 2022, published 2025)

What was measured:
Assay type in all cases: cell-based
Nrf2 = Nrf2 localisation by indirect immunofluorescence; details: Aβ treated SH-SY5Y cells
Description: Cells were cultured in confocal dishes up to 70% confluence and then treated with Aβ alone and with NMIs (M3), and subjected to immunofluorescence. The cells were washed twice with dPBS and then fixed with 4% paraformaldehyde for 15 min. The cells were then washed twice with dPBS for 5 min followed by treatment with permeabilization buffer (dPBS with 0.1% Triton X-100) for 10 min. The permeabilization buffer was aspirated and rinses with dPBS twice for 5 min. The samples were blocked with 10% goat serum in dPBS for 30 min at room temperature. The blocking solution was aspirated and then was treated with primary antibody (Nrf2/Iba1) with desired dilution in 4° C. with gentle shaking overnight. The samples were then washed with dPBS thrice for 5 min each and treated with Alexa Fluor-488 conjugated secondary antibody for 1 h in room temperature. The cells were washed with dPBS thrice and counterstain with DAPI (1 μM) for 10 min and imaged using confocal microscope.
M3 with in vitro antioxidant activity and in cellulo ROS quenching effect was expected to alleviate oxidative stress and modulate Nrf2 response. The effect of M3 on Nrf2 localisation in Aβ treated SH-SY5Y cells were assessed by indirect immunofluorescence staining study. […]

SH-SY5Y cells [1] = test: Cell rescue from Cu (II)-dependent Aβ toxicity (MTT)
Description: (§1) Cell rescue from Aβ toxicity by NMIs were assessed in SH-SY5Y cells. The cells were seeded into 96 well plate at cell density of 25,000 cells per well and after 24 h the media was replaced with DMEM-F12 with low serum (2.5% FBS). After 6 h, cells were treated with Aβ (10 μM) alone and with NMIs (20 μM) in low serum media. Different concentrations of compound (10, 20 and 50 μM) were used to treat cells. For metal dependent studies, Aβ (10 μM) with metals (20 μM) in the absence and presence of NMIs (20 μM) was treated. The cells were incubated for 30 h and MTT assay was performed to calculate the percentage cell viability.
(§2) Further, the effect of concentration of compounds of the present disclosure on the cell rescue was assessed. […] The ability of NMIs to rescue cells from metal-dependent Aβ toxicity were assessed in the presence of Cu (II) and Zn (II). Cells were treated with Aβ (10 μM) along with metal ions (20 μM) and NMIs (20 μM) for 30 h. Aβ in the presence of Cu (II) reduced cell viability to ˜62% and M3 treatment had rescued cells with viability to 85% (FIG. 12C). Aβ with Zn (II) viability reduced to ˜61% and M3 treatment rescued cells by improving the viability to ˜79% (FIG. 12D). […] These in-cellulo experiments confirmed the ability of M3 to effectively rescue neuronal cells from metal-independent and dependent Aβ toxicity.

SH-SY5Y cells [2] = test: Cell rescue from Zn (II)-dependent Aβ toxicity (MTT); details: Aβ 10 μM, Zn (II) 20 μM, NMIs 20 μM, 30 h; without compound ~61%
Description: as §1, §2

NF-kβ = test: Western blot of NF-kβ in C6 microglia; details: LPS 500 ng/mL, Aβ 5 μM, compound 10 μM; Aβ alone 2.62 fold
Description: (§3) Western blot analysis was performed to analyse the changes in the protein levels from cell lysates. SH-SY5Y and C6 cells were cultured to 80% confluence in T25 flask, trypsinised and seed into 12 well plate. The cells were cultured for 30 h and then treated with LPS (500 ng/mL) in low serum media for 6 h. Then the cells were treated with Aβ42 (5 μM) alone and with NMIs (M3) (10 μM) for 18 h. The cells were harvested by trypsinisation and the protein was extracted in RIPA lysis buffer with protease inhibitor cocktail (1×). Briefly cells were washed with dPBS and lysed in […] of RIPA lysis buffer with gentle shaking in 4° C. for 30 min. Then the cells were centrifuged at 16000 g for 20 min and the supernatant containing protein was collected and quantified by Bradford assay. The protein lysate was subjected to SDS-PAGE (12% resolving gel) and transferred to PVDF membrane. The blot paper was blocked with 5% skim milk powder for 1 h at room temperature and then washed thrice with TBST. […] All the western blots were quantified by using ImageJ, data was plotted and analysed by GraphPad prism5.
NF-kβ is a tangible drug target for neuroinflammation and AD. […] C6 microglia were primed with LPS (500 ng/mL) followed by Aβ (5 μM) treatment to induce inflammation, which was monitored by the change in NF-kβ levels in western blot analysis (FIG. 16F).

TNFα = test: Western blot of TNFα in C6 microglia; details: LPS 500 ng/mL, Aβ 5 μM, compound 10 μM; Aβ alone 2.35 fold
Description: as §3, with “TBST. The blots were incubated with primary antibodies for 20 h at 4° C. The blots were washed thrice with TBST for 5 min and then incubated with anti-rabbit HRP-conjugated secondary antibodies for 1 h at room temperature.” for “TBST.”, “prism5. […]” for “prism5.”

IL6 = test: Western blot of IL6 in C6 microglia; details: LPS 500 ng/mL, Aβ 5 μM, compound 10 μM; changes statistically insignificant
Description: as §3, with “TBST. The blots were incubated with primary antibodies for 20 h at 4° C. The blots were washed thrice with TBST for 5 min and then incubated with anti-rabbit HRP-conjugated secondary antibodies for 1 h at room temperature.” for “TBST.”, “prism5. […]” for “prism5.”

Compound: O=C1c2cccc3c(N(Cc4ccccn4)Cc4ccccn4)ccc(c23)C(=O)N1CCc1ccc(O)c(O)c1 [M3, 6-(bis(pyridin-2-ylmethyl)amino)-2-(3,4-dihydroxyphenethyl)-1H-benzo[de]isoquinoline-1,3(2H)-dione]
- translocation of Nrf2 to the nucleus (Nrf2): reduced the translocation of Nrf2 to the nucleus
- cell viability (SH-SY5Y cells [1]; Aβ 10 μM, Cu (II) 20 μM, NMIs 20 μM, 30 h, without compound ~62%): 85%
- cell viability (SH-SY5Y cells [1]; Cu (II)-dependent Aβ toxicity, higher concentration 50 µM, FIG. 13): 86%
- cell viability (SH-SY5Y cells [2]): ~79%
- NF-kβ level compared to control (NF-kβ): 1.78 fold
- TNFα level in comparison to control (TNFα): 1.47 fold
- IL6 level (IL6): reduced
